For series [1], the target named is human BACE1 (Homo sapiens, UniProt P56817). Description: Fluorescent kinetic assay, BACE-1 binding affinity (peptide substrate WABC-6 cleavage). In kind it is biochemical. Particulars: 10 nM enzyme, 25 μM substrate WABC-6, Na-Acetate pH 4.5, room temperature. Here is the method: Evaluation of BACE-1 Binding Affinity of Test Compounds
Fluorescent Kinetic Assay
Final Assay Conditions: 10 nM human BACE1 (or 10 nM Murine BACE1), 25 μM substrate (WABC-6, MW 1549.6, from AnaSpec), Buffer: 50 mM Na-Acetate, pH 4.5, 0.05% CHAPS, 25% PBS, room temperature. Na-Acetate was from Aldrich, Cat. #24, 124-5, CHAPS was from Research Organics, Cat. #1304C 1X, PBS was from Mediatech (Cellgro), Cat#21-031-CV, peptide substrate Abz[…]pa was from AnaSpec, Peptide Name: WABC-6 Determination of stock substrate (Abz[…]pa) concentration: ˜25 mM stock solution is made in DMSO using the peptide weight and MW, and diluted to ˜25 μM (1:1000) in 1×PBS. Concentration is determined by absorbance at 354 nm using an extinction coefficient ε of 18172 M^−1cm^−1, the concentration of stock substrate is corrected, and the substrate stock stored in small aliquots in −80° C. […] Determination of Stock Enzyme Concentration: the stock concentration of each enzyme is determined by absorbance at 280 nm using ε of 64150 M^−1cm^−1 for hBACE1 and MuBACE1 in 6 M Guanidinium Hydrochloride (from Research Organics, Cat. # 5134G-2), pH ˜6. The extinction coefficient ε^280 nm for each enzyme was calculated based on known amino acid composition and published extinction coefficients for Trp ([…]) and Tyr ([…]) residues (Anal. Biochem. 182, 319-326). Dilution and mixing steps: total reaction volume: 100 μL
2× inhibitor dilutions in buffer A (66.7 mM Na-Acetate, pH 4.5, 0.0667% CHAPS) were prepared,
4× enzyme dilution in buffer A (66.7 mM Na-Acetate, pH 4.5, 0.0667% CHAPS) were prepared,
100 μM substrate dilution in 1× PBS was prepared, and
50 μL 2× Inhibitor, 25 μL 100 μM substrate are added to each well of 96-well plate (from DYNEX Technologies, VWR #: 11311-046), immediately followed by 25 μL 4× enzyme (added to the inhibitor and substrate mix), and the fluorescence readings are initiated.
Fluorescence Readings: Readings at λex 320 nm and λem 420 nm are taken every 40 sec for 30 min at room temperature and the linear slope for substrate cleavage rate (vi) determined.
Calculation of % Inhibition: % Inhibition=100*(1−vi/v0) • vi: substrate cleavage rate in the presence of inhibitor • v0: substrate cleavage rate in the absence of inhibitor • IC50 Determination: % Inhibition=((B*IC50^n)+(100*I0^n))/(IC50^n+I0^n) (Model #39 from LSW Tool Bar in Excel where B is the % inhibition from the enzyme control, which should be close to 0.) % Inhibition is plotted vs. Inhibitor Concentration (I0) and the data fit to the above equation to obtain IC50 value and Hill number (n) for each compound.

Chain of human BACE1 (P56817 46-501): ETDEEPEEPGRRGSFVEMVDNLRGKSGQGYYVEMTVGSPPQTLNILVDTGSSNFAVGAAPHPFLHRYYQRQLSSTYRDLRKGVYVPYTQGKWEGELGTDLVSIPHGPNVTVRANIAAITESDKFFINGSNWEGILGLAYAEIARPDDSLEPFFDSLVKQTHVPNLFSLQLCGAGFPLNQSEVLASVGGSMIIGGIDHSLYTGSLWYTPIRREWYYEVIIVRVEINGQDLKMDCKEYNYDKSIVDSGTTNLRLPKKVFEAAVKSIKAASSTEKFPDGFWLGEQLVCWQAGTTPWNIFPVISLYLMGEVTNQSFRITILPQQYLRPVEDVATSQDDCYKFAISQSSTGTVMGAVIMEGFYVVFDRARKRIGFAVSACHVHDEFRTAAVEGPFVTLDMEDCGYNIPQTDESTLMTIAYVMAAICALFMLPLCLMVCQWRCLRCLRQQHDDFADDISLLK

As for “2′-amino-7-(6-fluoropyridin-3-yl)-2-methoxy-1,1′-dimethyl-10,11-dihydrospiro[dibenzo[a,d][7]annulene-5,4′-imidazol]-5′(1′H)-one [Example 6]”, the IC50 – broadly, the concentration that inhibits the measured activity by half – in series [1] came out at 0.108 µM.
`COc1ccc2c(c1C)CCc1ccc(-c3cccnc3)cc1C21N=C(N)N(C)C1=O` (stereo not shown) [Example 3, 2′-Amino-2-methoxy-1,1′-dimethyl-7-pyridin-3-yl-10,11-dihydrospiro[dibenzo[a,d][7]annulene-5,4′-imidazol]-5′(1′H)-one]: the melting point (usually the temperature of the solid-liquid transition) was 235 to 239 °C. This molecule also had a half-maximal inhibitory concentration (IC50) in series [1] of 0.077 µM.
`COc1ccc2c(c1C)CCc1ccc(-c3cccnc3F)cc1C21N=C(N)N(C)C1=O` (stereo not shown) [Example 4, 2′-amino-7-(2-fluoropyridin-3-yl)-2-methoxy-1,1′-dimethyl-10,11-dihydrospiro[dibenzo[a,d][7]annulene-5,4′-imidazol]-5′(1′H)-one] came in with a melting point of 153 to 155 °C. For the same molecule, in series [1], the concentration for half-maximal inhibition (IC50) was determined as 0.063 µM.
Take `COc1ccc2c(c1C)CCc1ccc(-c3cc(F)ccc3F)cc1C21N=C(N)N(C)C1=O` (stereo not shown) [Example 7, 2′-amino-7-(2,5-difluorophenyl)-2-methoxy-1,1′-dimethyl-10,11-dihydrospiro[dibenzo[a,d][7]annulene-5,4′-imidazol]-5′(1′H)-one]: the melting point was 155 to 195 °C. In series [1], this molecule gave an IC50 of 0.25 µM.
In the case of `COc1ccc2c(c1C)CCc1ccc(-c3cccc(C#N)c3)cc1C21N=C(N)N(C)C1=O` (stereo not shown) [Example 8, 3-(2′-amino-8-methoxy-1′,9-dimethyl-5′-oxo-1′,5′, 10,11-tetrahydrospiro[dibenzo[a,d][7]annulene-5,4′-imidazol]-3-yl)benzonitrile], the melting point lay within 269 to 280 °C. The same molecule yielded an IC50 in series [1] of 0.235 µM.
Molecule `COc1cccc(-c2ccc3c(c2)C2(N=C(N)N(C)C2=O)c2ccc(OC)c(C)c2CC3)c1` (stereo not shown) [Example 9, 2′-amino-2-methoxy-7-(3-methoxyphenyl)-1,1′-dimethyl-10,11-dihydrospiro[dibenzo[a,d][7]annulene-5,4′-imidazol]-5′(1′H)-one] displayed an IC50 in series [1] of 0.138 µM.
The molecule `COc1ccc2c(c1C)CCc1ccc(-c3cc(F)cc(F)c3)cc1C21N=C(N)N(C)C1=O` (stereo not shown) [Example 10, 2′-amino-7-(3,5-difluorophenyl)-2-methoxy-1,1′-dimethyl-10,11-dihydrospiro[dibenzo[a,d][7]annulene-5,4′-imidazol]-5′(1′H)-one] yielded a melting point of 245 to 249 °C. Also, in series [1], the concentration for half-maximal inhibition (IC50) is 0.376 µM.
`COc1ccc2c(c1)CCc1ccc(-c3ccccc3)cc1C21N=C(N)N(C)C1=O` (stereo not shown) [Example 12, 2′-Amino-2-methoxy-1′-methyl-7-phenyl-10,11-dihydrospiro[dibenzo[a,d][7]annulene-5,4′-imidazol]-5′(1′H)-one] showed an IC50 in series [1] of 0.18 µM.

The values are drawn from patent publication US7582667B2, “Dihydrospiro[dibenzo[a,d][7]annulene-5,4′-imidazol] compounds for the inhibition of beta-secretase” (Wyeth, priority 2006, dated 2009).
